Measured values as given in patent US9249129B2, “Morpholino substituted urea derivatives as mTOR inhibitors” (CELLZOME LIMITED, priority 2010, dated 2016).

How the values were obtained:
Experiment in all cases: kinobeads assay with mass spectrometry detection of kinases (kinase selectivity profile)
Assay type in all cases: binding
kinases (kinome) [1] = molecular target: T1, kinases (kinome) (Homo sapiens, UniProt Q13163); details: MAP2K5 (STE), IPI00158248
T1 construct: determined in kinobeads assays with mass spectrometry detection of kinases as described previously; endogenous in cells; host or cells: cell lysate
T1 sequence (Q13163 1-448): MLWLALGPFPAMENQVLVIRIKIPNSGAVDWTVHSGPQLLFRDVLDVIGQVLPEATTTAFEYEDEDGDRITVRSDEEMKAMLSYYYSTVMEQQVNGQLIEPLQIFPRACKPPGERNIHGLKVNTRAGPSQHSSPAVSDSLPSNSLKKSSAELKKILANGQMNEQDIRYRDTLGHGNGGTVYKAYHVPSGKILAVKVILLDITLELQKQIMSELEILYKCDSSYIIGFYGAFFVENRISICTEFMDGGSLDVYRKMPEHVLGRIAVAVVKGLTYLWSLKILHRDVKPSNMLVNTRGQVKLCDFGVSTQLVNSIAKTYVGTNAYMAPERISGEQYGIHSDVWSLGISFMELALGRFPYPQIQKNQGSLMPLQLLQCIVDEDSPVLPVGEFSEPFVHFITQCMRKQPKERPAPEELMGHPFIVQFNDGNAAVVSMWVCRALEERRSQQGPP
From the text: (§1) The protein kinase complement of the human genome (the kinome) was described previously (Manning et al., 2002. Science 298(5600):1912-1934). Sequence accession numbers are defined by the International Protein Index (IPI) (Kersey et al., 2004. Proteomics 4(7):1985-1988).

kinases (kinome) [2] = molecular target: T2, kinases (kinome) (Homo sapiens, UniProt Q14680); details: MELK (CAMK), IPI00006471
T2 construct: determined in kinobeads assays with mass spectrometry detection of kinases as described previously; endogenous in cells; host or cells: cell lysate
T2 sequence (Q14680 whole entry): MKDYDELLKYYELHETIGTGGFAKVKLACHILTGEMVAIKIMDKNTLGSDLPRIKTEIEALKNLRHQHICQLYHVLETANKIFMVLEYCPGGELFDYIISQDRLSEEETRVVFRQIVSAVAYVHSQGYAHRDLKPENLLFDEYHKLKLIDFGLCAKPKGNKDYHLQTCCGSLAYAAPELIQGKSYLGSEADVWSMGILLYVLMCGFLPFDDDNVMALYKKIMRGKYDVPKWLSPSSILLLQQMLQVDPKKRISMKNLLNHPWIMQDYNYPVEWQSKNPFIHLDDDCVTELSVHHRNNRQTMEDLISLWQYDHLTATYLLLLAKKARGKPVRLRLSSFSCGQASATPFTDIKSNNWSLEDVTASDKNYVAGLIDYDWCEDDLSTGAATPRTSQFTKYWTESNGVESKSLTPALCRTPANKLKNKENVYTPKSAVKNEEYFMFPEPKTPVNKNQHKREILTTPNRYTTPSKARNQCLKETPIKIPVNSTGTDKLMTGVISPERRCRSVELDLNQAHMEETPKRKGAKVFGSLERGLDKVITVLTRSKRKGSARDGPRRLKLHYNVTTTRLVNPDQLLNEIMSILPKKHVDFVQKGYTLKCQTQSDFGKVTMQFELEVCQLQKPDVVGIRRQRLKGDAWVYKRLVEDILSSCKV
From the text: as §1

kinases (kinome) [3] = molecular target: T3, kinases (kinome) (Homo sapiens, UniProt P36896); details: ALK4 (TKL), IPI00005732
T3 construct: determined in kinobeads assays with mass spectrometry detection of kinases as described previously; endogenous in cells; host or cells: cell lysate
T3 sequence (P36896 24-505): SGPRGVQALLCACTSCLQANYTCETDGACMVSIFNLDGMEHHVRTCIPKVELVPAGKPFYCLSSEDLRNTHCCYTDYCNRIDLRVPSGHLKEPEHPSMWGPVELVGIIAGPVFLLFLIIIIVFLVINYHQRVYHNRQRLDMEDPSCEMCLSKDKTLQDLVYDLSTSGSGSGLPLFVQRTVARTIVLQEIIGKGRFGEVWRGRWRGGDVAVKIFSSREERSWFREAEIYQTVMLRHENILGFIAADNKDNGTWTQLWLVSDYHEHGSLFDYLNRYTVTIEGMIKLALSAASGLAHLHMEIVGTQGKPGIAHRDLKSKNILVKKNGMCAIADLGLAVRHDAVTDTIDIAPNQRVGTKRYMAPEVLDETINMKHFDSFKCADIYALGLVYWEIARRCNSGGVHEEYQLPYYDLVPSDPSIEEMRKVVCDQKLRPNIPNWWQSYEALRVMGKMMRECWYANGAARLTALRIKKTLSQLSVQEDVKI
From the text: as §1

kinases (kinome) [4] = molecular target: T4, kinases (kinome) (Homo sapiens, UniProt Q9UBE8); details: NLK (CMGC), IPI00008237
T4 construct: determined in kinobeads assays with mass spectrometry detection of kinases as described previously; endogenous in cells; host or cells: cell lysate
T4 sequence (Q9UBE8 1-527): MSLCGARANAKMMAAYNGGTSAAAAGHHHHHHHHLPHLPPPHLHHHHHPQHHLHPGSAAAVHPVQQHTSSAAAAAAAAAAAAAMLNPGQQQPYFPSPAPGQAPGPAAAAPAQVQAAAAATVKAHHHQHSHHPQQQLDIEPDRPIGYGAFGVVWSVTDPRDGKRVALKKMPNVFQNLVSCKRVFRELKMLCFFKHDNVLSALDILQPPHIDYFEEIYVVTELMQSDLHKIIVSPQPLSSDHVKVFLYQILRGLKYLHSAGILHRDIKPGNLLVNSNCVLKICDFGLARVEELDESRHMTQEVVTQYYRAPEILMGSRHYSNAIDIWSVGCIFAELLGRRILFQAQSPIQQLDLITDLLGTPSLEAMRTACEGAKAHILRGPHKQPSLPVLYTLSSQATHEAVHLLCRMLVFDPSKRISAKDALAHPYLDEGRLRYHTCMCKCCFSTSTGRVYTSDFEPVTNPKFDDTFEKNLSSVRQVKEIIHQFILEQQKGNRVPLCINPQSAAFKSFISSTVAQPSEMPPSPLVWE
From the text: as §1

kinases (kinome) [5] = molecular target: T5, kinases (kinome) (Homo sapiens, UniProt P27361); details: Erk1 (CMGC), IPI00018195
T5 construct: determined in kinobeads assays with mass spectrometry detection of kinases as described previously; endogenous in cells; host or cells: cell lysate
T5 sequence (P27361 whole entry): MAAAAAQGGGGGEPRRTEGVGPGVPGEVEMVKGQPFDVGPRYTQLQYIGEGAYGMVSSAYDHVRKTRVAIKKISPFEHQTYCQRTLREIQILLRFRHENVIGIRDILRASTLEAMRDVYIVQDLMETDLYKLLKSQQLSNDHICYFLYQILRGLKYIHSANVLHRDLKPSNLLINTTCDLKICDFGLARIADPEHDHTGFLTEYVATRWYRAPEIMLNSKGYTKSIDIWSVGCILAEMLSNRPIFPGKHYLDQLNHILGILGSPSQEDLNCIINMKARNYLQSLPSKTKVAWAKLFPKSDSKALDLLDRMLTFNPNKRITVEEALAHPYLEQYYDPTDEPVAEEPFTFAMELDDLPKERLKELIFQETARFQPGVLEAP
From the text: as §1

kinases (kinome) [6] = molecular target: T6, kinases (kinome) (Homo sapiens, UniProt Q8NI60); details: ADCK3 (Atypical), IPI00176469
T6 construct: determined in kinobeads assays with mass spectrometry detection of kinases as described previously; endogenous in cells; host or cells: cell lysate
T6 sequence (Q8NI60 163-647): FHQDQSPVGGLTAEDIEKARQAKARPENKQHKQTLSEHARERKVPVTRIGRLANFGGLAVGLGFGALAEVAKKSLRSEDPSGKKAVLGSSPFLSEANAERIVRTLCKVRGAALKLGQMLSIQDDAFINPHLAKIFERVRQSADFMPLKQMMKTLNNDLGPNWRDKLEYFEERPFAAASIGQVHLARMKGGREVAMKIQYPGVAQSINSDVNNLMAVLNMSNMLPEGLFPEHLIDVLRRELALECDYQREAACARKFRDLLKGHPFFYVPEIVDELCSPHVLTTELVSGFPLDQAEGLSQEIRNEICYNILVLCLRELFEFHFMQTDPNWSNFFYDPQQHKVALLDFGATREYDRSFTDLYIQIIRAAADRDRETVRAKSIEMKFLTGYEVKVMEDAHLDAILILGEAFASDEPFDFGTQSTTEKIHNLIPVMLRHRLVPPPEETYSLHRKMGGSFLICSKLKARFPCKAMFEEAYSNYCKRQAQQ
From the text: as §1

kinases (kinome) [7] = molecular target: T7, kinases (kinome) (Homo sapiens, UniProt Q04759); details: PKCt (AGC), IPI00029196
T7 construct: determined in kinobeads assays with mass spectrometry detection of kinases as described previously; endogenous in cells; host or cells: cell lysate
T7 sequence (Q04759 whole entry): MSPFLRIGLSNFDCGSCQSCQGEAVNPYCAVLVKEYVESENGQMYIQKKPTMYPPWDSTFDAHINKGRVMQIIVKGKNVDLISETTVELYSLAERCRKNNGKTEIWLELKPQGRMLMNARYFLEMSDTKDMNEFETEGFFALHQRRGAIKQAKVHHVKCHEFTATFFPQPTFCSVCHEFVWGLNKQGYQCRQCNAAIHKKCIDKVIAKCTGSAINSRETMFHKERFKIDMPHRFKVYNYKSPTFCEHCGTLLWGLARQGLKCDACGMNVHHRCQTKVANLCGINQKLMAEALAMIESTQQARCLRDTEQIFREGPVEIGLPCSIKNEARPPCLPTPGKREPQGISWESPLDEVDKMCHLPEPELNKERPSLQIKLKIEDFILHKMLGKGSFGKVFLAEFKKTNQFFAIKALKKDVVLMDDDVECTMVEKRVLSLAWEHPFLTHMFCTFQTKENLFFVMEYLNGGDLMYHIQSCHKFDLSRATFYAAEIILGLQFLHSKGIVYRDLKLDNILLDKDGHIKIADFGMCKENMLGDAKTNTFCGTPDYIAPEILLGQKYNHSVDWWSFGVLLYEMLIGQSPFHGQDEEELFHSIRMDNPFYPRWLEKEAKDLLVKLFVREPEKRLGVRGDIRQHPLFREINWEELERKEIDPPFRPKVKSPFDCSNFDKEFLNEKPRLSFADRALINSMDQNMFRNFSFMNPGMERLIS
From the text: as §1

kinases (kinome) [8] = molecular target: T8, kinases (kinome) (Homo sapiens, UniProt Q9H2K8); details: TAO3 (STE), IPI00410485
T8 construct: determined in kinobeads assays with mass spectrometry detection of kinases as described previously; endogenous in cells; host or cells: cell lysate
T8 sequence (Q9H2K8 1-898): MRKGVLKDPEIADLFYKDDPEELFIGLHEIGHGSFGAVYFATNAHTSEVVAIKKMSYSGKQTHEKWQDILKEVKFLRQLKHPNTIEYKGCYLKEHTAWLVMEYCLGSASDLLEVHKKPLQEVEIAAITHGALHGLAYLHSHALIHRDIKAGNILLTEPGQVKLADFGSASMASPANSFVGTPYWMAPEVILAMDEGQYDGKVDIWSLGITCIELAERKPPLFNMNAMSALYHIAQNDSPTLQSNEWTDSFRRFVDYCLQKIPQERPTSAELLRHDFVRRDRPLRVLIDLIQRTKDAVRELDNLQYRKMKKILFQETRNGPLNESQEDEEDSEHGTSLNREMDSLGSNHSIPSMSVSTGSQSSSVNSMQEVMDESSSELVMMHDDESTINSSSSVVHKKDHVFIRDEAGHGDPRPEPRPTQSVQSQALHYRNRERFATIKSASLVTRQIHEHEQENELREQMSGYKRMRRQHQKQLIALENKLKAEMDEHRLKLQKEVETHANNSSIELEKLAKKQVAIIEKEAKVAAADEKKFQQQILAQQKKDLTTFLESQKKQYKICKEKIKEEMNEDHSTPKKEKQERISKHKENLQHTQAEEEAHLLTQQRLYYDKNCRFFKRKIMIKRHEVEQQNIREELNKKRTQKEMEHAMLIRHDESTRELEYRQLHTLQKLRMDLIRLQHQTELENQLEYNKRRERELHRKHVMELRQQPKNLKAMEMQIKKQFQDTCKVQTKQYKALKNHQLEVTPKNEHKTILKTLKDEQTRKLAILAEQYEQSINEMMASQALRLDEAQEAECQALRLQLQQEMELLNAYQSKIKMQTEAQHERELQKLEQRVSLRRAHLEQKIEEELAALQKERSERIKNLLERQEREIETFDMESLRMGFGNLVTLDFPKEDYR
From the text: as §1

IC50 (kinases (kinome) [1])	IC50 (kinases (kinome) [2])	IC50 (kinases (kinome) [3])	IC50 (kinases (kinome) [4])	IC50 (kinases (kinome) [5])	IC50 (kinases (kinome) [6])	IC50 (kinases (kinome) [7])	IC50 (kinases (kinome) [8])	Compound
> 10 µM	> 10 µM	> 10 µM	> 10 µM	> 10 µM	> 10 µM	> 10 µM	> 10 µM	C[C@H]1COCCN1c1cc(-c2ccccc2S(C)(=O)=O)nc(-c2ccc(NC(=O)NC3CC3)cc2)n1 [Example 6, (S)-1-cyclopropyl-3-(4-(4-(3-methylmorpholino)-6-(2-(methylsulfonyl)phenyl)pyrimidin-2-yl)phenyl)urea]
> 10 µM	> 10 µM	> 10 µM	> 10 µM	> 10 µM	> 10 µM	> 10 µM	> 10 µM	CCNC(=O)Nc1ccc(-c2cc(-c3ccccc3C#N)nc(N3CCOC[C@@H]3C)n2)cc1 [Example 8, (S)-1-(4-(6-(2-cyanophenyl)-2-(3-methylmorpholino)pyrimidin-4-yl)phenyl)-3-ethylurea]
> 10 µM	> 10 µM	> 10 µM	> 10 µM	> 10 µM	> 10 µM	> 10 µM	> 10 µM	C[C@H]1COCCN1c1nc(-c2ccc(NC(=O)NC3CC3)cc2)cc(-c2ccccc2S(C)(=O)=O)n1 [Example 4, (S)-1-cyclopropyl-3-(4-(2-(3-methylmorpholino)-6-(2-(methylsulfonyl)phenyl)pyrimidin-4-yl)phenyl)urea]
> 10 µM	> 10 µM	> 10 µM	> 10 µM	> 10 µM	> 10 µM	> 10 µM	> 10 µM	C[C@H]1COCCN1c1nc(-c2ccc(NC(=O)NC3CC3)cc2)cc(-c2cccnc2S(C)(=O)=O)n1 [Example 46, (S)-1-cyclopropyl-3-(4-(2-(3-methylmorpholino)-6-(2-(methylsulfonyl)pyridin-3-yl)pyrimidin-4-yl)phenyl)urea]
> 10 µM	> 10 µM	> 10 µM	> 10 µM	> 10 µM	> 10 µM	> 10 µM	> 10 µM	C[C@H]1COCCN1c1nc(-c2ccc(NC(=O)N[C@H]3CCC[C@@H]3O)cc2)cc(-c2cc(F)ccc2S(C)(=O)=O)n1 [Example 76, 1-(4-(6-(5-fluoro-2-(methylsulfonyl)phenyl)-2-((S)-3-methylmorpholino)pyrimidin-4-yl)phenyl)-3-((1S,2S)-2-hydroxycyclopentyl)urea]
> 10 µM	> 10 µM	–	> 10 µM	> 10 µM	> 10 µM	> 10 µM	> 10 µM	C[C@H]1COCCN1c1cc(-c2ccccn2)nc(-c2ccc(NC(=O)NCCO)cc2)n1 [Example 43, (S)-1-(2-hydroxyethyl)-3-(4-(4-(3-methylmorpholino)-6-(pyridin-2-yl)pyrimidin-2-yl)phenyl)urea]
> 10 µM	> 10 µM	> 10 µM	> 10 µM	> 10 µM	> 10 µM	> 10 µM	> 10 µM	C[C@H]1COCCN1c1nc(-c2ccc(NC(=O)NC3CC3)cc2)cc(-c2cc(F)ccc2S(C)(=O)=O)n1 [Example 40, (S)-1-cyclopropyl-3-(4-(6-(5-fluoro-2-(methylsulfonyl)phenyl)-2-(3-methylmorpholino)pyrimidin-4-yl)phenyl)urea]
